What was measured:
baboon anti-Aβ antibody = assay: Epitope mapping by competitive inhibition ELISA with hyperimmune baboon sera; format: binding, baboons
[1] = system: anti-Aβ antibodies in sera from vaccinated baboons; assay: Epitope mapping, 10-mer peptide-based ELISA with sera from vaccinated baboons; settings: peptide as plate coating
Description: Fine specificity analyses of anti-Aβ antibodies in immunized hosts or vaccines were determined by epitope mapping.
These nested peptides were used individually to coat microtiter wells as solid-phase immunoadsorbents for ELISA tests. The positive control ELISA plate was coated with Aβ1-28. They were tested for antibody binding with the sera from the four immunized baboons, from weeks 0, 10, 84 and 111. Baboon sera were serially diluted and assayed on plates coated with a 10-mer peptide at 5 ug/mL.

[2] = peptide concentration 0.5 μg/mL

Substance | Percent (%) Inhibition ELISA after peptide pre-absorption of sera (baboon anti-Aβ antibody; [2]) [%] | Percent (%) Inhibition ELISA after peptide pre-absorption of sera (baboon anti-Aβ antibody; peptide concentration 1 μg/mL) [%] | Percent (%) Inhibition ELISA after peptide pre-absorption of sera (baboon anti-Aβ antibody; peptide concentration 2 μg/mL) [%] | Percent (%) Inhibition ELISA after peptide pre-absorption of sera (baboon anti-Aβ antibody; peptide concentration 8 μg/mL) [%] | Percent (%) Inhibition ELISA after peptide pre-absorption of sera (baboon anti-Aβ antibody; peptide concentration 32 μg/mL) [%] | ELISA Titer titers (Log10) ([1]; 0 weeks post immunization) | ELISA Titer titers (Log10) ([1]; 10 weeks post immunization) | ELISA Titer titers (Log10) ([1]; 84 weeks post immunization) | ELISA Titer titers (Log10) ([1]; 111 weeks post immunization)
SEQ ID NO: 18: EFRHD SGYEV (EFRHDSGYEV; PEPTIDE (1)..(10) Abeta 3-12 or APP 770(E674-V683); listed as Homo sapiens) [Aβ3-12] | 1 | 0 | 0 | 0 | 3 | – | – | – | –
SEQ ID NO: 16: MDAEF RHDSG (MDAEFRHDSG; PEPTIDE (1)..(10) Abeta -1-9 or APP 770(M671-G680); listed as Homo sapiens) [Aβ-1-9] | 9 | 4 | 8 | 17 | 39 | – | – | – | –
8 (TEEISEVKMD) [Peptide 8] | – | – | – | – | – | 0.23 | 0.26 | 0.16 | 0.15
25 (YEVHHQKLVF) [Peptide 25] | – | – | – | – | – | 0.16 | 0.43 | 0.15 | 0.22
14 (VKMDAEFRHD) [Peptide 14] | – | – | – | – | – | 0.27 | 0.46 | 0.48 | 0.55
28 (HHQKLVFFAE) [Peptide 28] | – | – | – | – | – | 0.19 | 0.22 | 0.13 | 0.12
10 (EISEVKMDAE) [Peptide 10] | – | – | – | – | – | 0.23 | 0.25 | 0.16 | 0.14
18 (EFRHDSGYEV) [Peptide 18] | – | – | – | – | – | 0.24 | 0.30 | 0.18 | 0.18
19 (FRHDSGYEVH) [Peptide 19] | – | – | – | – | – | 0.20 | 0.40 | 0.22 | 0.30
20 (RHDSGYEVHH) [Peptide 20] | – | – | – | – | – | 0.23 | 0.34 | 0.27 | 0.41
SEQ ID NO: 17: AEFRH DSGYE (AEFRHDSGYE; PEPTIDE (1)..(10) Abeta 2-11 or APP 770(A673-E682); listed as Homo sapiens) [Aβ2-11] | 0 | 0 | 0 | 6 | 19 | – | – | – | –
21 (HDSGYEVHHQ) [Peptide 21] | – | – | – | – | – | 0.21 | 0.40 | 0.18 | 1.14
22 (DSGYEVHHQK) [Peptide 22] | – | – | – | – | – | 0.32 | 0.78 | 0.64 | 0.76
